Test results as given in a melting point compilation (Tetko et al.; mined from patent text by program, amines drawn as free bases though some values may be those of a salt).

melting point	Structure (SMILES)
72 °C	O=C(O)CCOc1ccc(CNC(=O)C2Cc3ccccc3N2S(=O)(=O)c2ccc(-c3cccc(C(F)(F)F)c3)cc2)cc1 (stereo not drawn)
211 to 213 °C	CCn1c(=O)c(C#N)c(N2CCCC2)c2ccc(C)nc21
227 to 229 °C	O/N=C1\CCCc2c1c1ccccc1n2-c1ccc(O)cc1
258 to 264 °C	Cc1ccc(C(=O)Nc2ccc(C)c(-c3nc(N(C)C)nc4c3CNC(=O)N4c3c(F)cccc3F)c2)cc1F
> 260 °C	COc1cc(NC(=O)Nc2cccc3c2C2CC(OC)CCN2C3=O)nc2ccccc12 (stereo not drawn)
151 to 153 °C	CC(C)Oc1cc(Oc2ccc(S(C)(=O)=O)cn2)cc2cc(C3=NCC(CC(C)(C)O)S3)[nH]c12 (stereo not drawn)
265 to 270 °C	Cc1ccc(C(=O)NC(=O)Nc2cc3c(cc2F)/C(=C/c2[nH]c(C)c(CCC(=O)O)c2C)C(=O)N3)cc1
109 to 111 °C	COc1cc2c(cc1OC)CN(C(=O)Cc1ccc(-c3ccccc3)cc1)CC2
155 to 156 °C	Brc1cccc(-c2cc(-c3cccc(Br)c3)on2)c1
210 to 211 °C	CCN(CC)CC1CCN(c2c(F)cc3c(=O)c(C(=O)O)cn(CC)c3c2F)C1 (stereo not drawn)
204 to 205 °C	CC1CC(=O)NN=C1c1ccc2c(c1)N(C(C)C)C(=O)C(C)O2 (stereo not drawn)
91 to 93 °C	COC(=O)CCN1CCC(NC(=O)OC(C)(C)C)CC1
66 °C	CC(=O)Nc1ccccc1C(=O)C1CCCCC1
190 to 195 °C	N#Cc1ccc2[nH]c(-c3ccc(Cl)c(Cl)c3)c(CCCC(=O)O)c2c1
256 °C	CCn1c(=O)c(-n2c(C(N)=O)nnc2-c2ccc(C#N)cc2)c(C)n(-c2cccc(C(F)(F)F)c2)c1=O
56 to 57 °C	COC(=O)c1cc(Br)c(Br)o1
104 to 106 °C	CN(C)C1CCC(c2c[nH]c3ccc(NC(=N)c4cccs4)cc23)CC1 (stereo not drawn)
248 to 250 °C	COc1ccc(Cc2ccc3[nH]c(=S)[nH]c3c2)cc1OC

melting point	Structure (SMILES)
135 to 140 °C	O=C1C(=O)c2ccc(Br)cc2C2=C1SCC1(CCN(C(=O)c3cccc(Cl)c3)CC1)O2
174 to 176 °C	CN(C)c1ccc(-c2cccc3c2C2(COc4cc5c(cc42)OCO5)C(=O)N3Cc2ccc(C(F)(F)F)o2)cn1 (stereo not drawn)
235 to 237 °C	c1ccc(COc2ccc(Nc3ncnc4ncccc34)cc2)cc1
158 to 165 °C	COC(=O)C(=CC(=CN(C)C)c1cc(OCc2ccccc2)ccc1[N+](=O)[O-])[N+](=O)[O-]
155 to 156 °C	CC1(C)OCCC(NC(=O)c2cnccc2C(F)(F)F)O1 (stereo not drawn)
208 to 210 °C	O=C(O)/C=C/C=C/C=C/C1=Cc2cc(C(F)(F)F)ccc2OC1
184 to 186 °C	O=Cc1c[nH]nc1-c1ccc([N+](=O)[O-])o1
178 to 180 °C	CC(C)C(=O)Nc1nc2c(ncn2C2OC(CO)C(O)C2OC2CCCO2)c(=O)[nH]1 (stereo not drawn)
77 to 78 °C	C[C@@H](Cn1ncc2ccc3c(c21)C[C@@H](OCC(=O)OC(C)(C)C)CO3)N=[N+]=[N-]
54 to 58 °C	Cc1oc(C)c(C(=O)OC2CC(C)(C)NC(C)(C)C2)c1C
214 to 217 °C	CCOC1=NS(=O)(=O)C(S(C)(=O)=O)=C1N
172 °C	CCCCCCCCCCCCCCCCCC(=O)NCNC(=O)CCSc1ccc(O)cc1
72 to 74 °C	COC(=O)c1cc(Cl)c(N)c(Cl)c1
200 to 203 °C	CC(C)(C)C(=O)CN1C(=O)C(NC(=O)Nc2cccc3ccccc23)CN(C2CCCCC2)c2ccccc21 (stereo not drawn)
268 to 270 °C	C[C@H]1CN(c2cc3c(cc2F)c(=O)c(C(=O)O)cn3C2CC2)C[C@H]1N (relative stereo)
105 to 106 °C	CCc1c(C(F)(F)F)noc1NS(=O)(=O)c1ccccc1
191 to 192 °C	NC(=O)c1nnn(Cc2ccccc2)c1NC(=O)c1ccccc1
275 to 285 °C	N#CC(C#N)=C1C=C(c2ccsc2)S(=O)(=O)C(c2ccsc2)=C1

Structure (SMILES)	melting point
NC(=O)C1CN1Cc1ccccc1 (stereo not drawn)	114 to 116 °C
O[C@@H]1c2ccccc2CN2CCC[C@@H]12 (relative stereo)	131 to 133 °C
